These results are taken from patent US20250011311A1, “AMIDO HETEROAROMATIC COMPOUNDS” (AstraZeneca AB, priority 2022, published 2025).

pIC50: −log10 of the molar value.

One data set concerns the target CYP2C9 (Homo sapiens (Human), UniProt P11712). In words: Assay B: Cytochrome P450 Inhibition 2C9.
Data set [1] addresses recombinant 17bHSD4 (M1-N311) (Homo sapiens (Human), UniProt P51659). The data set can be described thus: In Vitro 17bHSD4 Enzyme Assay. In kind it is biochemical. The settings on record: 40 nM 17bHSD4, 0.125 mM NAD, 15 μM Estradiol, 1.5 h; NADH fluorescence; read-out: 17HSD17b4 Enzyme assay IC50.
The target in data set [2] is recombinant 17bHSD13 (N2-K300) (Homo sapiens (Human), UniProt Q7Z5P4). In words: In Vitro 17bHSD13 Enzyme Assay. The format is biochemical. The settings on record: 80 nM 17bHSD13, 0.5 mM NAD, 20 μM Estradiol, 2.5 h; estradiol to estrone by LC-MS/MS. The procedure, abridged: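 Human 17bHSD13 (N2-K300, 80 nM) with 0.5 mM NAD, 20 μM estradiol and varied compound in 50 mM Tris-Cl pH 7.4, 5 mM EDTA, 0.01% DDM. Estrone/(estrone+estradiol) ratio read by LC-MS/MS (APCI, positive MRM). Inhibition normalised to DMSO and a known-inhibitor control; IC50 from curve fit.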

Data set [3] concerns the target over expressed HSD17β13 in HEK293S cells (Homo sapiens (Human), UniProt Q7Z5P4). In words: In Vitro 17bHSD13 Cell Assay. In kind it is cell-based. To be noted: HEK293S cells over expressing HSD17β13; estradiol to estrone conversion, 18 h, LC-MS/MS; read-out: 17bHSD1713 Cell assay IC50. The procedure, abridged: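 HEK293S cells overexpressing HSD17β13 convert estradiol to estrone; product read by LC-MS/MS (APCI, positive MRM) as AUC ratio estrone/(estrone+estradiol). Effect normalised between DMSO and maximal inhibition by a known inhibitor control; IC50 from curve fit.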

Another data set relates to human hepatocytes. In words: Assay A: Metabolic Stability in Human Hepatocytes. The format is in vitro ADME. The settings on record: cryopreserved human hepatocytes, 10^6 viable cells/mL, 1 μM compound, 37° C. Put shortly: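 Cryopreserved hepatocytes (10^6 viable cells/mL) at 37° C with 1 μM test compound, sampled 0.5–120 min and quenched in MeCN. Parent measured by LC-MS/MS; CLint (μL/min/10^6 cells) from the slope of ln(parent concentration) vs time.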

Sequence of over expressed HSD17β13 in HEK293S cells (Q7Z5P4 20-300): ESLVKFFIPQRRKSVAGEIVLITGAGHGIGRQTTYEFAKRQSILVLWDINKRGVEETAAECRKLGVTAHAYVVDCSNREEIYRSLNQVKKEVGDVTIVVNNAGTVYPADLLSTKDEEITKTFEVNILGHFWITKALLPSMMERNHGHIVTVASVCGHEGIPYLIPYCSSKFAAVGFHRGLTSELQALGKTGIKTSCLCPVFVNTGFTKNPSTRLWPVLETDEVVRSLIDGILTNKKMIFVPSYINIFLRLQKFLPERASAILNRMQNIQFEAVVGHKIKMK
Sequence of recombinant 17bHSD13 (N2-K300) (Q7Z5P4 2-300): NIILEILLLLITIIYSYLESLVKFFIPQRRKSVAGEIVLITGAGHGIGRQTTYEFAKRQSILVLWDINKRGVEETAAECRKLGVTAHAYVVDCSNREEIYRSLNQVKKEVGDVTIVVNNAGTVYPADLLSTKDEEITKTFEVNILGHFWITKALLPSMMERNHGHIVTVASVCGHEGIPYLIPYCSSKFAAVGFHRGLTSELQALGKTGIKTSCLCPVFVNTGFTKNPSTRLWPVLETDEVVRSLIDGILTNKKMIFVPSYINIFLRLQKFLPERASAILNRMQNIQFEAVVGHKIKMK
Sequence of recombinant 17bHSD4 (M1-N311) (P51659 1-311): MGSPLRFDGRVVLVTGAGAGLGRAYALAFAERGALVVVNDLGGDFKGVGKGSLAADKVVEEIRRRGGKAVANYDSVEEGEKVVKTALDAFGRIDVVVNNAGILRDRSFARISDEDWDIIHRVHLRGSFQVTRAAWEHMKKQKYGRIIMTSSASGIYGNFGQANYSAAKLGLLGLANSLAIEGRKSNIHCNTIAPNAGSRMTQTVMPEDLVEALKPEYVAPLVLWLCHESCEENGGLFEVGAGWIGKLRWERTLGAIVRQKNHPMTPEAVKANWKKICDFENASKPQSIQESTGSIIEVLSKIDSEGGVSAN
Sequence of CYP2C9 (P11712 whole entry): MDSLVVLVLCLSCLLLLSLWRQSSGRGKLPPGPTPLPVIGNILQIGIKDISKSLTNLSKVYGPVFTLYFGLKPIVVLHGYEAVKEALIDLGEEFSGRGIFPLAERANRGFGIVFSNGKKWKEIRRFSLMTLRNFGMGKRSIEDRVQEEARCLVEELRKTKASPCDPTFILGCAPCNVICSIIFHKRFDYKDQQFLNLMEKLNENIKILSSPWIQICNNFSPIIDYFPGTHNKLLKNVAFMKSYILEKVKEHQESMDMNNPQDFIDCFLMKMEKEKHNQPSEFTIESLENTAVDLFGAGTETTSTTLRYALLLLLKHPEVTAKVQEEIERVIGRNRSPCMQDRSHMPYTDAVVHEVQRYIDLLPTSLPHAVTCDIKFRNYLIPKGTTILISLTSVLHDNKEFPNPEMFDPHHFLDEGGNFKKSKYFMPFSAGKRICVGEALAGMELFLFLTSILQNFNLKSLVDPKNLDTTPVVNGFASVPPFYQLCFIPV

In the case of `O=C(c1noc(-c2cc(F)c(F)c(O)c2F)n1)N1CC[C@H](c2ccc(Cl)cc2)C1` [Example 95, (R)-(3-(4-Chlorophenyl)pyrrolidin-1-yl)(5-(2,4,5-trifluoro-3-hydroxyphenyl)-1,2,4-oxadiazol-3-yl)methanone], the pIC50 on CYP2C9 was 5.96; in data set [1] it was 5.16; in data set [2], 7.28; in data set [3], 6.68. Besides, the “Assay A: Human Heps Met Clint GMean CLint (μl/min/1E6)” value with human hepatocytes is 12.9 μl/min/1E6.
For `O=C(c1noc(-c2cc(F)c(F)c(O)c2F)n1)N1CC[C@@H](Oc2ccccc2)C1` [Example 98, (R)-(3-Phenoxypyrrolidin-1-yl)(5-(2,4,5-trifluoro-3-hydroxyphenyl)-1,2,4-oxadiazol-3-yl)methanone], in that order: 6.10, 5.02, 7.20, 6.28 and 26.7 μl/min/1E6.
For `O=C(Nc1ccnn1C1CCCCC1)c1cc(-c2ccc(F)c(O)c2)on1` [Example 99, N-(1-Cyclohexyl-1H-pyrazol-5-yl)-5-(4-fluoro-3-hydroxyphenyl)isoxazole-3-carboxamide], in that order: less than 4.52, 4.38, 6.94, 4.80 and greater than 300 μl/min/1E6.
For `C[C@@H]1CN(C(=O)c2noc(-c3c(F)c(O)c(F)c(F)c3I)n2)C[C@H](C)O1` [Example 108, ((2S,6R)-2,6-Dimethylmorpholino)(5-(2,4,5-trifluoro-3-hydroxy-6-iodophenyl)-1,2,4-oxadiazol-3-yl)methanone], in that order: 5.15, less than 4.30, 7.10, 6.31 and 8.8 μl/min/1E6.
Consider `N#Cc1cccc2c1CCN(C(=O)c1noc(-c3c(F)c(O)c(F)c(F)c3I)n1)C2` [Example 109, 2-(5-(2,4,5-Trifluoro-3-hydroxy-6-iodophenyl)-1,2,4-oxadiazole-3-carbonyl)-1,2,3,4-tetrahydroisoquinoline-5-carbonitrile], for which the pIC50 at CYP2C9 is 4.83; in data set [1], 4.93; in data set [2], 7.34; in data set [3] it was 5.77. Moreover, the “Assay A: Human Heps Met Clint GMean CLint (μl/min/1E6)” value with human hepatocytes is listed as 13.0 μl/min/1E6.
On to `O=C(c1noc(-c2cc(F)c(F)c(O)c2F)n1)N1CCO[C@H]2CCC[C@H]21` [Example 112, ((4aR,7aS)-Hexahydrocyclopenta[b][1,4]oxazin-4(4aH)-yl)(5-(2,4,5-trifluoro-3-hydroxyphenyl)-1,2,4-oxadiazol-3-yl)methanone], for which the negative-log IC50 (pIC50) against CYP2C9 was 5.27; in data set [1], less than 4.30; in data set [2], 6.71; in data set [3] it was 6.41. Moreover, the “Assay A: Human Heps Met Clint GMean CLint (μl/min/1E6)” value with human hepatocytes was 7.4 μl/min/1E6.
Take `O=C(c1noc(-c2cc(F)c(F)c(O)c2F)n1)N1CCO[C@@H]2CCC[C@@H]21` [Example 113, ((4aS,7aR)-Hexahydrocyclopenta[b][1,4]oxazin-4(4aH)-yl)(5-(2,4,5-trifluoro-3-hydroxyphenyl)-1,2,4-oxadiazol-3-yl)methanone]: the negative logarithm of the IC50 (pIC50) on CYP2C9 is 5.38; in data set [1], 4.34; in data set [2], 6.68; in data set [3], 7.00. In addition, in the data set on human hepatocytes, the “Assay A: Human Heps Met Clint GMean CLint (μl/min/1E6)” value stood at 7.3 μl/min/1E6.
For `O=C(c1noc(-c2cc(F)c(F)c(O)c2F)n1)N1CCO[C@@H]2CCC[C@H]21` [Example 114, ((4aR,7aR)-Hexahydrocyclopenta[b][1,4]oxazin-4(4aH)-yl)(5-(2,4,5-trifluoro-3-hydroxyphenyl)-1,2,4-oxadiazol-3-yl)methanone], in that order: 5.14, less than 4.30, 7.34, 6.92 and 6.4 μl/min/1E6.
As to `O=C(c1noc(-c2cc(F)c(F)c(O)c2F)n1)N1CCO[C@H]2CCC[C@@H]21` [Example 115, ((4aS,7aS)-Hexahydrocyclopenta[b][1,4]oxazin-4(4aH)-yl)(5-(2,4,5-trifluoro-3-hydroxyphenyl)-1,2,4-oxadiazol-3-yl)methanone], the negative logarithm of the IC50 (pIC50) on CYP2C9 is 5.01; in data set [1] it was less than 4.30; in data set [2] it was 6.81; in data set [3], 7.00. For the same compound, the “Assay A: Human Heps Met Clint GMean CLint (μl/min/1E6)” value in the data set on human hepatocytes stood at 6.2 μl/min/1E6.
The like results for `CC1CN(C(=O)c2noc(-c3cc(F)c(F)c(O)c3F)n2)CC(C)(C)O1` (centres unmarked) [Example 117, (5-(2,4,5-Trifluoro-3-hydroxyphenyl)-1,2,4-oxadiazol-3-yl)(2,2,6-trimethylmorpholino)methanone] were, in that order, 5.31, 4.40, 6.63, 7.05 and 4.2 μl/min/1E6.
Regarding `O=C(c1noc(-c2cc(F)c(F)c(O)c2F)n1)N1CCOC2(CC2)C1` [Example 118, (4-Oxa-7-azaspiro[2.5]octan-7-yl)(5-(2,4,5-trifluoro-3-hydroxyphenyl)-1,2,4-oxadiazol-3-yl)methanone], the pIC50 against CYP2C9 was 5.11; in data set [1], less than 4.30; in data set [2], 5.97; in data set [3], 6.66. Besides, the “Assay A: Human Heps Met Clint GMean CLint (μl/min/1E6)” value in the data set with human hepatocytes was 4.6 μl/min/1E6.
The like results for `C[C@@H]1CN(C(=O)c2noc(-c3cc(F)c(F)c(O)c3F)n2)C[C@H](C)N1` [Example 119, ((3R,5S)-3,5-Dimethylpiperazin-1-yl)(5-(2,4,5-trifluoro-3-hydroxyphenyl)-1,2,4-oxadiazol-3-yl)methanone] were, in that order, 4.91, less than 4.30, 5.76, 5.56 and 1.0 μl/min/1E6.
For `C[C@@H]1CN(C(=O)c2cnc(-c3cc(F)c(F)c(O)c3F)s2)C[C@H](C)O1` [Example 120, ((2R,6S)-2,6-Dimethylmorpholino)(2-(2,4,5-trifluoro-3-hydroxyphenyl)thiazol-5-yl)methanone], in that order: 4.89, less than 4.30, 7.36, 6.85 and 13.3 μl/min/1E6.
